In patent publication EP4810035A1, “TREATMENT OF MODERATE TO SEVERE PLAQUE PSORIASIS” (Ganzhou Hemay Pharmaceutical, Co., Ltd, priority 2023, dated 2025):

How the values were obtained:
[1] = tested on: patients with moderate to severe chronic plaque psoriasis; test: Clinical study on patients (Example 3), 16-week core treatment period, 36-week extension, 4-week follow-up, placebo-controlled; format: in vivo, human
Experimental: This study selected patients with moderate to severe chronic plaque psoriasis as target subjects. Specific criteria were set for disease duration, severity and extent (psoriasis history ≥ 6 months, PASI score ≥ 12, sPGA score ≥ 3, and BSA ≥ 10). […] Primary efficacy endpoint: PASI-75 at week 16. […] Improvement in pruritus symptoms and changes in DLQI scores were also evaluated. The study consisted of a 16-week core treatment period, a 36-week extension treatment period and a 4-week follow-up period. Subjects in the experimental group received 60 mg BID of the compound in Example 2. During the extension treatment period, subjects in the placebo group also received 60 mg BID of the compound in Example 2.

[2] = tested on: Patients with plaque psoriasis; test: Multicenter, randomized, double-blind, placebo-parallel controlled dose study in plaque psoriasis (Example 5); format: in vivo, human; conditions: for PASI-75 response rate (%): week 16
Experimental: This was a multicenter, randomized, double-blind, placebo-parallel controlled study. A total of 216 subjects were enrolled and randomized in a 1:1:1:1 ratio into the low-dose group (15 mg BID), mid-dose group (30 mg BID), high-dose group (60 mg BID) of the investigational drug, and the placebo group for a 16-week core treatment period. Upon completion of the core treatment, subjects in the low, mid and high-dose groups maintained their original doses for a 36-week extension treatment period. Subjects in the placebo group were switched to the mid-dose group (30 mg BID) for the 36-week extension treatment after completing the core period. All subjects completed a total of 52 weeks of treatment. Subjects who completed 52 weeks of treatment or discontinued prematurely should enter a 4-week follow-up period. […]

healthy Chinese subjects = test: Phase I clinical study, multiple oral doses (Example 6); format: in vivo, human; conditions: multiple oral doses of 15 mg BID, 30 mg BID, 60 mg BID, 75 mg BID; 36 healthy Chinese subjects
Experimental: A total of 36 healthy Chinese subjects participated in a phase I clinical study, in which multiple oral doses of 15 mg BID, 30 mg BID, 60 mg BID, 75 mg BID of the compound in Example 2, or a placebo were administered, respectively.

[3] = tested on: subjects with moderate to severe plaque psoriasis; test: Phase III study of moderate to severe plaque psoriasis (Example 4), double-blind placebo-controlled core period and open-label extension; conditions: for HADS Anxiety Score, Mean / HADS Depression Score, Mean: Experimental group (N=211)
Experimental: Tablets of the compound shown in Example 2 with a strength of 15 mg per tablet.
Control Drug: Placebo tablets matching the investigational drug with a strength of 0 mg per tablet.
• 1) Aged ≥ 18 years at the time of signing the Informed Consent Form (ICF), of any gender. • 2) Clinically diagnosed with stable plaque psoriasis, with a psoriasis history of ≥ 6 months (prior to randomization). • 3) The following requirements are met at screening and baseline: • a. Psoriasis Area and Severity Index (PASI) score ≥ 12; and • b. Static Physician Global Assessment (sPGA) score ≥ 3 (based on an sPGA 0-4 scale); and • c.
The treatment period consisted of two phases: during the double-blind core treatment period, subjects received 60 mg BID of the investigational drug or placebo for 16 weeks (week 0 to week 16); during the open-label extension treatment period, all subjects received 60 mg BID of the investigational drug for 36 weeks (week 16 to week 52).
A total of 305 subjects were enrolled (211 in the experimental group and 94 in the placebo group; including 105 T-SPOT positive subjects without active tuberculosis, 7 subjects with previously confirmed pulmonary tuberculosis, 76 subjects with a history of tuberculosis, and 1 subject with a history of tuberculous pleurisy).
The primary efficacy endpoint was the proportion of subjects achieving PASI 75 at week 16 compared to baseline. The key secondary efficacy endpoint was an sPGA 0/1 with a reduction of ≥2 points from baseline at week 16. Other secondary efficacy endpoints included the proportion of subjects achieving PASI-90, PASI-75, PASI-50, and both PASI-75 and sPGA 0/1 with a ≥ 2-point reduction from baseline at each visit, as well as the rate of change in BSA. Clinical observation and evaluation were conducted over the 16-week core treatment period, the 36-week extension treatment period and the 4-week follow-up period. The Hospital Anxiety and Depression Scale (HADS) was used as an assessment tool to observe and evaluate the anxiety and depression status of subjects at screening, the end of the 16-week core period and 4 weeks after the last dose.

[4] = 16-week core treatment period, 60 mg BID, N=211
[5] = by the end of the clinical study

`CCOc1cc([C@@H](CS(C)(=O)=O)N2C(=O)c3csc(NC(C)=O)c3C2=O)ccc1OC` [Example 2, (S)-N-[5-[1-(3-ethoxy-4-methoxyphenyl)-2-(methylsulfonyl)ethyl]-4,6-dioxo-5,6-dihydro-5H-thieno[3,4-c]pyrrol-1-yl]acetamide] was tested, and the deaths ([1]; 60 mg BID) was “No deaths occurred”, the “drug-related serious adverse events” value ([1]; 60 mg BID) was “No drug-related serious adverse events occurred” and the “severity of adverse events leading to discontinuation” value (“severity of adverse events leading” below) ([1]; 60 mg BID) was “all Grade 1 or Grade 2”. The “severity of drug-related adverse events” value ([1]; 60 mg BID) was “primarily Grade 1 or Grade 2”, the “Secondary Efficacy Indicators, difference compared to the placebo group” value ([1]; 60 mg BID, P<0.0001) was “statistically significant differences” and the “DLQI (LS mean)” value [1, 4] was 5.38 points. The PASI-90 [1, 4] was 32.5%, the tuberculosis reactivation ([1]; T-SPOT positive but non-active TB subjects, by the end of the clinical study) was “no tuberculosis reactivation occurred” and the “occurrences of depression or suicidal ideation” value (“occurrences” below) ([1]; by the end of the clinical study, any subjects) was “no occurrences of depression or suicidal ideation were observed”. For the same molecule, the “proportion of subjects achieving PASI-75” value ([1]; week 16, 60 mg BID, N=211) was 53.6%, the “rate difference between the two groups (PASI-75)” value ([1]; week 16, Example 2 group vs placebo group) was 37.6% and the Chest imaging examinations ([1]; week 16 visit, T-SPOT positive but non-active TB subjects) was “no abnormalities”. The “DLQI score change from baseline, Mean” value ([2]; 15mg BID Group (N=54)) was 4.9, the “PASI-50 response rate (%)” value ([2]; 15mg BID Group (N=54)) was 42.59% and the “PASI-75 & sPGA 0/1 score (%)” value ([2]; 15mg BID Group (N=54)) was 12.96%. The “PASI-90 response rate (%)” value ([2]; 15mg BID Group (N=54)) was 16.67%, the “sPGA 0/1 score (%)” value ([2]; 15mg BID Group (N=54)) was 14.81% and the “DLQI score change from baseline, Mean” value ([2]; 30mg BID Group (N=54)) was 6.1. The “PASI-50 response rate (%)” value ([2]; 30mg BID Group (N=54)) was 51.85%, the “PASI-75 & sPGA 0/1 score (%)” value ([2]; 30mg BID Group (N=54)) was 14.81% and the “PASI-90 response rate (%)” value ([2]; 30mg BID Group (N=54)) was 11.11%. For the same molecule, the “sPGA 0/1 score (%)” value ([2]; 30mg BID Group (N=54)) was 14.81%, the “DLQI score change from baseline, Mean” value ([2]; 60mg BID Group (N=54)) was 7.1 and the “PASI-50 response rate (%)” value ([2]; 60mg BID Group (N=54)) was 62.96%. The “PASI-75 & sPGA 0/1 score (%)” value ([2]; 60mg BID Group (N=54)) was 24.07%, the “PASI-90 response rate (%)” value ([2]; 60mg BID Group (N=54)) was 20.37% and the “sPGA 0/1 score (%)” value ([2]; 60mg BID Group (N=54)) was 24.07%. For the same molecule, the “Population pharmacokinetics and exposure-response analysis” value ([2]; 15, 30, 60 mg BID) was “the efficacy response rate increased with increasing doses”, the death events ([2]; 15, 30, 60 mg BID) was “No death events occurred” and the “adverse events of depression or anxiety” value [2, 5] was “no adverse events of depression or anxiety were reported”. The “occurrences” value [2, 5] was “no occurrences of depression or suicidal ideation were observed”, the “drug-related serious adverse events” value ([2]; core treatment period) was “No drug-related serious adverse events occurred” and the “Adverse events with an incidence of ≥10%” value ([2]; double-blind core treatment period (weeks 1 to 16)) was “diarrhea, nausea, headache, and fatigue”. The “drug-related adverse events with an incidence of ≥5% in any of the low, medium or high-dose groups” value ([2]; double-blind core treatment period (weeks 1 to 16), 15, 30, 60 mg BID) was “increased triglycerides, increased lipids, diarrhea, nausea, abdominal discomfort, hyperlipidemia, headache, and fatigue”, the “severity of adverse events leading” value ([2]; in vivo) was “Grade 1 or Grade 2” and the “PASI-75 and PASI-90 efficacy endpoints in a subject who had failed adalimumab therapy” value ([2]; one subject) was “also achieved the PASI-75 and PASI-90 efficacy endpoints”. For the same molecule, the “PASI-50 efficacy endpoint in subjects who had failed prior biologic therapy” value ([2]; one subject failed adalimumab, one failed secukinumab, one failed TNF-α monoclonal antibody therapy) was “all achieved the PASI-50 efficacy endpoint”, the “PASI-75 response rate (%)” value ([2]; 15mg BID Group (N=54)) was 18.52% and the “PASI-75 response rate (%)” value ([2]; 30mg BID Group (N=54)) was 25.93%. The “PASI-75 response rate (%)” value ([2]; 60mg BID Group (N=54)) was 46.30%, the safety and tolerability (healthy Chinese subjects) was “good safety and tolerability” and the death events ([3]; 60 mg BID) was “No death events occurred”. For the same molecule, the “incidence of adverse reaction: diarrhea” value ([3]; 60 mg BID) was 11.4%, the “incidence of adverse reaction: dizziness” value ([3]; 60 mg BID) was 9.0% and the “incidence of adverse reaction: fatigue” value ([3]; 60 mg BID) was 8.5%. For the same molecule, the “incidence of adverse reaction: headache” value ([3]; 60 mg BID) was 8.1%, the “incidence of adverse reaction: hypertriglyceridemia” value ([3]; 60 mg BID) was 5.7% and the “incidence of adverse reaction: increased stool frequency” value ([3]; 60 mg BID) was 10.4%. The “incidence of adverse reaction: nausea” value ([3]; 60 mg BID) was 23.7%, the “incidence of adverse reaction: vomiting” value ([3]; 60 mg BID) was 10.0% and the “severity of adverse events leading” value ([3]; 60 mg BID) was “Grade 1 or Grade 2”. For the same molecule, the “severity of the primary adverse reactions” value ([3]; 60 mg BID) was “Grade 1 or Grade 2”, the “time of occurrence of gastrointestinal reactions and nervous system abnormalities” value ([3]; 60 mg BID) was “mostly occurred within the first two weeks of administration” and the “tuberculosis activation (reactivation)” value ([3]; 105 T-SPOT positive subjects without active tuberculosis, 7 with previously confirmed pulmonary tuberculosis, 76 with history of tuberculosis, 1 with history of tuberculous pleurisy, by the end of the study) was “no instances of tuberculosis activation (reactivation) were observed”. For the same molecule, the “HADS Anxiety Score, Mean” value ([3]; Week 16, 60 mg BID) was 2.3, the “HADS Depression Score, Mean” value ([3]; Week 16, 60 mg BID) was 3.0 and the “HADS Anxiety Score, Mean” value ([3]; Week 56, 60 mg BID) was 3.1. For the same molecule, the “HADS Depression Score, Mean” value ([3]; Week 56, 60 mg BID) was 3.8, the “chest X-ray or CT examinations” value ([3]; any of the subjects) was “No clinical abnormalities related to tuberculosis were found” and the “adverse events of depression or anxiety related to the investigational drug” value [3, 5] was “No adverse events of depression or anxiety related to the investigational drug were observed”. The “difference between the experimental group and the placebo group in mean HADS anxiety scores and mean HADS depression scores” value [3, 5] was “no statistically significant differences (P>0.05)”, the “occurrences” value [3, 5] was “no occurrences of depression or suicidal ideation” and the “drug-related serious adverse events” value ([3]; core treatment period, 60 mg BID) was “No drug-related serious adverse events occurred”. The “PASI-50 efficacy endpoint in subjects who had failed prior adalimumab treatment” value ([3]; two subjects, 60 mg BID) was “both achieved the PASI-50 efficacy endpoint”, the “BSA rate of change (%)” value ([3]; week 16, 60 mg BID, N=211) was 65.0% and the “Both PASI-75 and sPGA 0/1 and reduction of ≥2 points from baseline (%)” value ([3]; week 16, 60 mg BID, N=211) was 30.3%. The “DLQI change from baseline, (mean)” value ([3]; week 16, 60 mg BID, N=211) was 5.38 points, the “PASI-50 (%)” value ([3]; week 16, 60 mg BID, N=211) was 82.7% and the “PASI-75 (%)” value ([3]; week 16, 60 mg BID, N=211) was 53.6%. For the same molecule, the “PASI-90 (%)” value ([3]; week 16, 60 mg BID, N=211) was 32.5% and the “sPGA score of 0/1 and reduction of ≥2 points from baseline (%)” value ([3]; week 16, 60 mg BID, N=211) was 31.3%.
